Assay results published in the METLIN SMRT retention time set (Domingo-Almenara et al. 2019).

Test: gradient 5% acetonitrile 3 min, to 50% in 2 min, to 85% in 15 min, held 3 min, 100 µL/min
Details: column: Zorbax Extend-C18 2.1 x 50 mm; eluents: water / acetonitrile, 0.1% formic acid
Procedure, shortened: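 Over 3 months, pure standards in mixtures of ~100 molecules were run by HPLC coupled to a quadrupole time-of-flight mass spectrometer in positive and negative ionization mode. The column was a Zorbax Extend-C18 (2.1 × 50 mm, 1.8 μm) at 100 μL/min, eluted with water and acetonitrile each holding 0.1% formic acid, with 40 μL dead and 900 μL dwell volumes. Retention time was determined from adduct peaks chosen by software and checked manually.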

SMILES	RP-LC retention time [s]
CN(CCc1noc(-c2ccc(C(=O)N3CCCC3)cc2)n1)C(=O)c1ccccc1Br	736
Cc1nn2c(CNS(=O)(=O)c3ccc4c(c3)OCCO4)c(-c3ccccc3)nc2s1	817
Cc1csc(-c2cc(S(=O)(=O)Nc3cc(F)ccc3F)cn2CC(=O)N2CCCC2)n1	874
CCn1c(=O)c2cc(C(=O)Nc3ccc4c(c3)CCC4)nn2c2ccccc21	1090
CC(C)n1c(CCNC(=O)c2ccccc2Cl)nc2cccnc21	651
COc1ccc(NC(=O)Cn2nc(N3CCOCC3)c3ccccc3c2=O)cc1	730
O=C(NCC1CC1)[C@@H]1OCCN(C2CC2)[C@H]1c1ccccc1	612
Cn1c(=O)c(N2CCN(C(=O)c3ccc(F)cc3F)CC2)nc2ccncc21	586
Cc1nc(-c2csc(S(=O)(=O)N3CCCC(C(=O)NCCc4ccc(Cl)cc4)C3)c2)no1 (centres undefined)	982
Cc1ccc2nc(C(=O)N3CCN(c4ccccn4)CC3)cn2c1	538
O=C(Nc1ccc(F)c(F)c1)c1c(O)c2cccnc2n(Cc2ccccc2)c1=O	1140
CCc1cc(=O)n(CC(=O)Nc2ccc(Cl)cc2)c(-c2ccccc2)n1	1190
CN1c2ccc(Cl)cc2C(=O)NC12CCN(C(=O)c1ccc(F)cc1)CC2	818
Cc1c(C(=O)NCCOc2ccc3c(c2)OCO3)cccc1[N+](=O)[O-]	778
Cc1cc2c(=O)n(CC(=O)Nc3ccc(Cl)cc3F)ccc2s1	871
CC(=O)[C@H]1CCC2C3CC[C@H]4C[C@H](O)CC[C@]4(C)C3CC[C@@]21C (some centres undefined)	1270
CCOC(=O)c1noc2ncnc(N3CCc4ccccc4C3)c12	1010
O=C(NCc1ccc2c(c1)OCO2)c1nnc(-c2ccc(S(=O)(=O)N3CCOCC3)cc2)o1	804
CCc1nnc([C@@H]2CC(F)(F)CN2C(=O)Cn2ccc(C)n2)o1	646
CSc1cccc(NC(=O)C2CC(=O)N(c3ccc4c(c3)CCN4C(C)=O)C2)c1 (centres undefined)	730

SMILES	RP-LC retention time [s]
CCCn1ccc2sc(C)c(C(=O)NCC3CCCCC3)c2c1=O	1010
O=C(Cc1csc2nc(-c3cccc(Br)c3)cn12)NCCC1=CCCCC1	1050
COc1ccc(Cc2nc3nccc(-c4cccs4)n3n2)cc1	871
CN1c2ccc(F)cc2C(=O)NC12CCN(C(=O)c1ccccc1Cl)CC2	751
COc1ccc(CC(=O)N2CCN(c3cc(C)n4cnnc4n3)CC2)cc1OC	578
O=C(NCc1ccc(F)cc1)C1CCc2nc(N3CCCCC3)ncc2C1 (centres undefined)	678
Cc1ccc2c(c1)N(C(=O)Cn1nc3c4ccccc4ncn3c1=O)CCO2	730
COc1cc(C(=O)Oc2ccc(/C=C/c3ccccn3)cc2)cc(OC)c1OC	689
CCc1ccc(CNC(=O)c2c(C)sc3ccn(CC)c(=O)c23)cc1	959
Cc1cccc(OCC(=O)Nc2ccc3c(c2)Sc2ncccc2C(=O)N3C(C)C)c1	972
Cc1ccc(CNC(=O)c2ccc3ccnc(N4CCN(c5ccc(F)cc5)CC4)c3c2)o1	828
CCOc1ccccc1-n1ccn(Cc2nc(-c3ccc(OC)cc3)no2)c(=O)c1=O	846
COc1ccc(-c2n[nH]c3c2C(c2cccc(O)c2)N(C)C3=O)cc1 (centres undefined)	686
Cc1ccc(C(=O)N2CCc3ccc(CNC(=O)NC(C)C)cc32)cc1	808
O=C(Nc1cccn2nc(C3CCC3)nc12)C1CCCO1 (centres undefined)	774
Cc1cc(=O)n(CC(=O)Nc2cccc(C(F)(F)F)c2)c(N2CCN(c3ccccc3)CC2)n1	969
CCOc1ccc(-c2nc(-c3cccc(-c4ccnn4CC)c3)no2)cc1OCC	1300
Cc1c(Cl)cccc1NC(=O)N1C[C@@H](F)C[C@H]1C(=O)N1CCCCC1	718
CSc1ccc(NC(=O)C2CCN(c3cncnc3N3CCOCC3)CC2)cc1	669

Results, then the molecule that gave them:

RP-LC retention time [s]	SMILES
1040	COc1ccc(OC)c(NC(=O)Cn2cnc3c(sc4nc(-c5ccccc5)ccc43)c2=O)c1
743	CC(=O)N1CCc2cc(N3CC(C(=O)Nc4cc(C)ccc4F)CC3=O)ccc21 (centres undefined)
751	O=C(C1=CN(c2ccc(F)c(F)c2)c2ccccc2S1(=O)=O)N1CCOCC1
854	CCOC(=O)C1CC(C)=C(C)CC1C(=O)O (centres undefined)
684	Cc1oc(C2CCN(C(=O)Nc3ccc(F)cc3)CC2)nc1C(=O)N(C)C
638	COc1ccc(NC(=O)CN2CCc3c(c(=O)c4cc(C)ccc4n3C)C2)cc1Cl
1350	CC(C)c1ccc(S(=O)(=O)N2CCCC2c2nc(-c3cccc(Cl)c3)no2)cc1 (centres undefined)
753	COc1ccccc1CC(=O)N1CCCC1c1c(C)noc1C (centres undefined)
900	O=C(Nc1ccc2c(c1)CC(C(=O)NCCCc1ccccc1)CO2)c1cccs1 (centres undefined)
767	O=[N+]([O-])c1cccc2cn[nH]c12
754	CN(CC(=O)NC1CCCC1)S(=O)(=O)c1ccc2nc(-c3ccccc3)[nH]c2c1
707	C#Cc1cccc(Nc2ncnc3cc(OC)c(OCCCCCCC(=O)NO)cc23)c1
600	Cc1cc(C(=O)NC2CC2)nn1C
991	CCc1ccc(-n2nc(N3CCCC(C(=O)NCc4cccc(Br)c4)C3)ccc2=O)cc1 (centres undefined)
738	CCc1noc(NC(C)=O)c1-c1ccc(OC)c(S(=O)(=O)Nc2cccc(C#N)c2)c1
690	Cc1ccc2nc3c(c(C(=O)NC4CCCC4)c2c1)CCC3
574	CC(C)n1cnc2cc(CNC(=O)c3ccoc3)ccc21
1240	CCc1ccccc1NC(=O)c1cc(C(C)C)n2nccc2n1
974	CCc1ccc(C2=C(C)C(N3CCCN(C(=O)CCC(C)C)CC3)=NS2(=O)=O)cc1
722	O=C(NC1CCN(C(=O)c2cc(-c3cccs3)[nH]n2)CC1)C1CCCCC1
952	CCOc1ccccc1-c1noc(-c2cc(-c3ccccc3)n[nH]2)n1
715	Cn1ccnc1C(=O)N1CC(n2cc(COc3ccc(F)cc3)nn2)C1
839	Cc1ccc2c(c1)N(C)N=C(C(=O)N1CCCCCC1)S2(=O)=O
970	O=c1ccc(-c2ccccc2)nn1CCc1nc(-c2ccc(F)cc2)no1
679	Cn1nccc1C(=O)N1CCN(S(=O)(=O)c2ccc3c(c2)oc(=O)n3C)CC1

RP-LC retention time [s]	SMILES
920	Cn1cc2c3c(cccc31)CN(C(=O)c1c(F)cccc1F)CC2
881	COCCCNC(=O)c1cc(-c2ccc(C)cc2)nc2n[nH]c(-c3ccc(C)cc3)c12
1250	COc1ccc(NC(=O)c2cc(C(C)C)n3nccc3n2)c(C)c1
620	COc1ccc(NC(=O)N2CCN(c3cc(-c4ccc(OC)c(OC)c4)ncn3)CC2)cc1
883	O=C(c1cn(-c2cc(-c3nc(C4CC4)no3)ccn2)cn1)N1CCCCCC1
765	O=C(c1ccc(Cl)cc1)N1CCC2(C1)C(=O)Nc1ccccc12 (centres undefined)
809	COc1ccc(-c2noc(CN3CCN(c4ccc(OC)cc4)CC3)n2)cc1
1030	CCOc1ccc(-c2noc(CN3N=NC4C(=O)N(c5ccc(CC)cc5)C(=O)C43)n2)cc1OC (centres undefined)
737	CCN1C(=O)c2cccnc2Sc2cc(CNC(=O)c3cccs3)ccc21
823	CCN1c2ccccc2C(=O)NC12CCN(C(=O)Cc1ccc(C)cc1)CC2
930	COCc1cc2nn(CC(=O)Nc3c(C)cccc3C)c(=O)n2c(-c2ccccc2)n1
888	O=C(c1ccc(Cl)cc1Cl)N1CCN(c2cc(-c3cccs3)[nH]n2)CC1
1010	COc1ccc(-c2csc(NC(=O)CS(=O)(=O)c3ccc(C)cc3)n2)c(OC)c1
776	Cc1cccc(NC(=O)c2cnn3c2CCCC3)c1
834	O=C(C1CCOC1)N1CCC(CCOc2cccc(F)c2)CC1 (centres undefined)
751	Cc1sc2ccn(C)c(=O)c2c1C(=O)NCc1ccccc1F
670	Cn1ncc2cc3c(Nc4ccc(Cl)cc4)cccc3nc21
913	O=C(NCCOc1cccc(C(F)(F)F)c1)c1ccc([N+](=O)[O-])cc1
1050	Cc1nc(-c2csc(S(=O)(=O)N3CCCC(C(=O)Nc4ccc(Cl)cc4F)C3)c2)no1 (centres undefined)
729	O=C(Nc1cc(-c2cccnc2)no1)c1ccc(F)cc1
986	COC(=O)COC(=O)c1cn(-c2ccc(C)cc2)c(=O)c2ccccc12
650	COCCn1ncc(N2CCC(C(=O)N(C)CC(=O)Nc3ccc(F)cc3)C2)cc1=O (centres undefined)
610	COC[C@@H]1CN(Cc2ccc3[nH]ccc3c2)C[C@H]1c1nc(C)no1
778	O=C1Nc2ccccc2SC1C(=O)N1CCC(C(=O)N2CCN(c3ccc(F)cc3)CC2)CC1 (centres undefined)
622	Cc1nc2nc(SCC(=O)NCCCN3CCOCC3)nn2c(C)c1Cc1ccccc1
